Reference: patent US12077551B2, “Zinc complex, preparation thereof and use thereof for trerapy of human and animal diseases” (OBSCHESTVO S OGRANICHENNOI OTVETSTVENNOSTIYU “Z …, priority 2018, dated 2024)

Legend:
[1] = system: mouse atopic dermatitis model; test: Mouse atopic dermatitis model (DNCB), histological analysis of the affected ear; type: in vivo, male mice of the balb/c strain
Procedure: Experimental technique. The study of Compound 1 activity in the model of atopic dermatitis was carried out using the standard technique [Evidence-based Complementary and Alternative Medicine. 2012. Article ID 545497, 9 pages). For the experimental group, we selected animals of average appearance without signs of deviations, with the weight of the animal being no more than ±20% from the average value within the sex. On days 0 and 12 of the experiment, male mice of the balb/c strain were treated with 100 μl of a 2% solution of 1-chloro-2,4-dinitrobenzene (DNCB) in ethanol applied to the previously shaved areas on the back to sensitize the body. On the 17th day, 20 μl of 2% alcohol solution of DNCB was applied to the “test” right ear of the animals twice with an interval of 1 hour. Compound 1 cream with an active substance content of 0.01 wt % was administered topically, to the “test” right ear, twice: 1 and 13 hours after the last application of DNCB to the ear. The following were used as a comparison/reference/control medications: Methylprednisolone aceponate ([…] ointment for external use), pyrithione zinc (0.2% cream for external use), pimecrolimus (1% cream for external use) and cream for external use containing gamma-L-glutamylhistamine 0.01%. On the 18th day, the animals were euthanized and the histological analysis of the affected ear was performed. Histological sections with a thickness of 5 μm were stained with hematoxylin-eosin. […] The data obtained were verified using the Grubbs test, also known as the maximum normalized residual test a test used to detect outliers in a data set. The values identified as “outliers” in this test were not used for further analysis. Descriptive statistics were used for all data: the mean (M) and standard error of the mean (m) were calculated. The normal distribution of the values obtained in the experiment was verified using the Kolmogorov-Smirnov test. In the case of a normal distribution, Student's t-test was used to assess intergroup differences. […] Differences were determined at a 5% confidence level.

[2] = target: recombinant intracellular human glutaminyl cyclase (Homo sapiens, UniProt Q9NXS2); test: Enzymatic activity of human glutaminyl cyclase in vitro (fluorescent substrate Gln-bNA); type: biochemical; details: 25° C., 50 μM Gln-bNA, pH 8.0, enzyme incubated with compound for 5 minutes; read-out: IC50, inhibition of glutaminyl cyclase activity
Procedure: In the studies of the effect of Compound 1 (which is the subject of the present invention) on the enzymatic activity of glutaminyl cyclase in vitro, the direct inhibitory effect of Compound 1 on recombinant intracellular human glutaminyl cyclase was discovered.
The activity of glutaminyl cyclase at various Compound 1 concentrations was studied at 25° C. using the fluorescent substrate L-glutaminyl 2-naphthylamide (Gln-bNA) [Anal Biochem. 2002 Apr. 1; 303 (1): 49-56]. The reaction mixture with a volume of 100 μl contained 50 μM of a fluorogenic substrate; ˜0.2 units of human pyroglutaminyl aminopeptidase (1 unit is defined as the amount that hydrolyzes 1 micromole of pGlu-bNA per minute), and an aliquot of recombinant intracellular human glutaminyl cyclase (gQC) in […] trisaminomethane HCl and 5% glycerol, pH 8.0. The reaction was initiated by adding an aliquot of glutaminyl cyclase incubated with Compound 1 for 5 minutes to the reaction mixture.
Further progression of the reaction was monitored spectrophotometrically (excitation and emission wavelengths were 320 and 410 nm). Enzymatic activity was determined by the amount of released 2-naphthylamide (bNA), calculated based on the calibration curve. IC50 values were calculated using non-linear regression of the “inhibitor concentration”-“enzyme activity” curve.

[3] = Solubility and dissociation of the product (NMR solvents, D2O spectrum); type: physicochemical
Excerpt: The prepared resulting product is insoluble in solvents which are used to record NMR spectra.
It mainly contains the residual signal of the non-deuterated solvent, and low-intensity signals corresponding to the original gamma-L-glutamylhistamine.

Chain of recombinant intracellular human glutaminyl cyclase (Q9NXS2 whole entry): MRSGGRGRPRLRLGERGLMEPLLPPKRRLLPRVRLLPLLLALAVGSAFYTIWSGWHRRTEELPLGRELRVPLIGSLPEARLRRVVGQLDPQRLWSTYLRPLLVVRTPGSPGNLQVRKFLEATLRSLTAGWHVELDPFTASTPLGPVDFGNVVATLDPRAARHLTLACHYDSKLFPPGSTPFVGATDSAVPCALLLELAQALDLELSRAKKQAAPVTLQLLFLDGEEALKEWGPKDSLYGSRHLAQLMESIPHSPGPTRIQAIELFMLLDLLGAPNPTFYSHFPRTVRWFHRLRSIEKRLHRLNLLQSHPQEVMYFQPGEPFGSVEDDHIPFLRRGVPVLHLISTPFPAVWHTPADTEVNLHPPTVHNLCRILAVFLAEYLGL

zinc complex of gamma-L-glutamylhistamine [Compound 1]
action in comparison with the gamma-L-glutamylhistamine ligand ([1]; 0.01 wt % cream vs cream containing gamma-L-glutamylhistamine 0.01%): significant improvement | effectiveness in comparison with the reference drugs methylprednisolone aceponate, zinc pyrithione and pimecrolimus ([1]; 0.01 wt % cream vs reference ointment/creams): superior performance | influx of inflammatory cells (monocytes, dendritic cells, eosinophils and neutrophils) into the epidermis and dermis of the skin ([1]; 0.01 wt % cream, topical to right ear, 1 and 13 hours after last DNCB application, histology on day 18): to the level of intact animals | IC50 [2]: 26 µM | solubility in solvents used to record NMR spectra ([3]; product of Example 2): insoluble | dissociation in aqueous suspensions ([3]; product of Example 2, D2O NMR spectrum): insignificant dissociation
